Legend:
Experiment in all cases: relative viability (nuclei count vs DMSO), 5 days (fraction); higher = more cells survive
[1] = compound: Cn1cc(-c2cnn3c(N)c(Br)c([C@@H]4CCCNC4)nc23)cn1 + Cc1cc(Nc2cc(N3CCN(C)CC3)nc(Sc3ccc(NC(=O)C4CC4)cc3)n2)n[nH]1 [Tozasertib] (partner 0.1 µM)
Method in brief: (§1)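 Values are medians from duplicate plates. Each reflects relative viability, defined as the nuclei count of treated wells over that of vehicle wells. Lung cancer cell lines in 1536-well plates were pin-tool dosed one day after seeding with one drug alone or with a fixed anchor-drug dose plus five library-drug doses (not always all listed) in √10 steps, then fixed, stained and imaged at 4× after 5 days.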

[2] = compound: Cn1cc(-c2cnn3c(N)c(Br)c([C@@H]4CCCNC4)nc23)cn1 + NC(=O)Nc1cc(-c2cccc(F)c2)sc1C(=O)N[C@H]1CCCNC1 [AZD7762] (partner 0.2 µM)
Method in brief: as §1

[3] = compound: Cn1cc(-c2cnn3c(N)c(Br)c([C@@H]4CCCNC4)nc23)cn1 + CC(=O)Nc1cccc(-n2c(=O)n(C3CC3)c(=O)c3c(Nc4ccc(I)cc4F)n(C)c(=O)c(C)c32)c1 [Trametinib] (partner 0.02 µM)
Method in brief: as §1

[4] = compound: Cn1cc(-c2cnn3c(N)c(Br)c([C@@H]4CCCNC4)nc23)cn1
Method in brief: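 For viability, nuclei in each treated well were divided by nuclei in vehicle wells and the median across plates was taken. Lung cancer cell lines in 1536-well plates were pinned with five library-drug doses (not always all listed) spaced by √10, cultured 5 days without medium change, and imaged at 4× after Hoechst staining, with plates passing only at control CV below 25% and at least one doubling.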

Cell Line	relative viability ([1]; first compound 0.05 µM)	relative viability ([1]; first compound 0.1581 µM)	relative viability ([1]; first compound 0.5 µM)	relative viability ([1]; first compound 1.581 µM)	relative viability ([1]; first compound 5 µM)	relative viability ([2]; first compound 0.05 µM)	relative viability ([2]; first compound 0.1581 µM)	relative viability ([2]; first compound 0.5 µM)	relative viability ([2]; first compound 1.581 µM)	relative viability ([2]; first compound 5 µM)	relative viability ([3]; first compound 0.05 µM)	relative viability ([3]; first compound 0.1581 µM)	relative viability ([3]; first compound 0.5 µM)	relative viability ([3]; first compound 1.581 µM)	relative viability ([3]; first compound 5 µM)	relative viability ([4]; 0.05 µM)	relative viability ([4]; 0.1581 µM)	relative viability ([4]; 0.5 µM)	relative viability ([4]; 1.581 µM)	relative viability ([4]; 5 µM)
NCI-H1993	0.62	0.602	0.463	0.513	0.538	0.642	0.84	0.616	0.733	0.664	0.518	0.467	0.643	0.435	0.511	0.846	0.942	0.955	0.716	0.794
NCI-H838	0.272	0.244	0.312	0.264	0.19	0.991	0.92	1	0.879	0.84	0.501	0.521	0.496	0.505	0.471	0.955	1.06	0.882	0.885	0.878
NCI-H1437	0.414	0.46	0.402	0.361	0.381	1.11	1.18	1.08	1.01	0.889	0.504	0.611	0.562	0.428	0.355	1.02	1.11	1.06	0.847	0.832
NCI-H2170	0.78	0.789	0.644	0.894	0.855	0.923	0.919	0.753	0.822	0.973	0.973	0.93	0.927	0.763	1.13	0.991	1.03	0.93	1.01	1.07
NCI-H1648	0.395	0.436	–	0.377	0.381	0.607	0.635	0.717	0.649	0.637	0.443	0.478	0.421	0.435	0.515	0.926	0.958	0.669	0.749	0.83
LCLC-103H	0.543	0.57	0.469	0.364	0.313	0.834	0.914	0.728	0.738	0.685	0.641	0.7	0.717	0.677	0.684	1.03	0.986	1.05	0.909	1.03
NCI-H441	0.922	0.777	0.651	0.675	0.657	1.27	1.32	1.05	1.1	0.956	0.431	0.491	0.426	0.337	0.429	1.28	1.26	1.15	0.862	1.31
BEN	0.606	0.494	0.467	0.714	0.489	0.659	0.69	0.688	0.667	0.533	1.19	1.01	0.907	0.966	0.881	1.05	0.902	0.904	0.972	0.834
LC-2-ad	0.39	0.382	0.442	0.464	0.355	0.841	0.949	0.819	0.805	0.881	0.974	0.986	0.935	0.931	0.961	1.02	1.05	1.02	0.899	1.04
RERF-LC-KJ	0.52	0.502	0.501	0.346	0.384	1.1	0.864	1.1	0.872	0.749	0.88	0.839	0.835	0.8	0.657	1.05	1.01	1.01	0.859	0.896
SW 900	0.59	0.66	0.421	0.458	0.351	0.607	0.618	0.572	0.547	0.465	0.772	0.746	0.946	0.753	0.816	0.87	0.881	1	0.669	0.309
NCI-H1915	0.47	0.493	0.44	0.359	0.411	0.666	0.67	0.718	0.69	0.709	0.479	0.313	0.304	0.347	0.301	0.984	0.998	0.971	0.868	0.969
NCI-H596	1.02	1.08	0.719	0.857	0.562	1.13	1.06	1.06	1.01	1.1	0.899	0.832	0.886	0.768	0.832	0.985	1.15	0.887	0.916	0.766
NCI-H2126	0.809	0.819	0.774	0.611	0.644	1.05	1.03	0.997	0.993	0.986	0.628	0.549	0.548	0.561	0.597	0.986	1.07	1	0.899	0.95
LXF-289	0.209	0.219	0.189	0.168	0.162	1.09	1.16	1.09	0.981	1.05	0.712	0.71	0.662	0.62	0.673	1.03	1.14	1.03	1.01	1.06
HCC-44	–	0.875	1.12	0.637	0.618	0.889	1.01	1.02	0.964	1.05	0.998	1.09	1.12	1.08	1.13	0.918	1.06	1.01	0.994	0.953

Cell Line	relative viability ([1]; first compound 0.05 µM)	relative viability ([1]; first compound 0.1581 µM)	relative viability ([1]; first compound 0.5 µM)	relative viability ([1]; first compound 1.581 µM)	relative viability ([1]; first compound 5 µM)	relative viability ([2]; first compound 0.05 µM)	relative viability ([2]; first compound 0.1581 µM)	relative viability ([2]; first compound 0.5 µM)	relative viability ([2]; first compound 1.581 µM)	relative viability ([2]; first compound 5 µM)	relative viability ([3]; first compound 0.05 µM)	relative viability ([3]; first compound 0.1581 µM)	relative viability ([3]; first compound 0.5 µM)	relative viability ([3]; first compound 1.581 µM)	relative viability ([3]; first compound 5 µM)	relative viability ([4]; 0.05 µM)	relative viability ([4]; 0.1581 µM)	relative viability ([4]; 0.5 µM)	relative viability ([4]; 1.581 µM)	relative viability ([4]; 5 µM)
PC-14	0.634	0.458	0.594	0.438	0.274	0.348	0.273	0.332	0.277	0.182	0.816	0.929	0.581	0.337	0.272	1.04	1.01	1.01	0.707	0.425
HOP-62	0.334	0.348	0.335	0.252	0.249	0.526	1.06	0.622	0.534	0.271	0.354	0.376	0.404	0.339	0.34	1.07	1.16	0.956	1.01	0.812
NCI-H358	0.0994	0.103	0.0971	0.0967	0.117	0.417	–	0.447	0.38	0.36	0.132	0.115	0.122	0.102	0.121	0.988	1.1	0.877	0.771	0.749
NCI-H1666	0.608	0.589	0.606	0.522	0.511	0.78	0.82	0.813	0.845	0.861	0.92	0.867	0.892	0.959	0.71	1.02	1.04	1.02	0.981	0.875
NCI-H1355	0.553	0.614	0.509	0.45	0.423	0.718	0.846	0.672	0.623	0.458	0.369	0.426	0.433	0.491	0.417	0.973	1.07	1.04	0.919	0.883
HCC-827	0.426	0.392	0.439	0.516	0.394	0.183	0.188	0.193	0.211	0.17	0.499	0.541	0.556	0.549	0.444	0.971	1.08	1.07	1.12	0.945
HARA	0.115	0.616	0.0879	0.0826	0.0524	0.401	0.34	0.292	0.26	0.199	0.762	0.474	0.482	0.532	0.344	0.975	1.03	1.31	0.761	0.301
HCC-366	0.144	0.703	0.169	0.0808	0.0856	0.202	0.247	0.344	0.229	0.224	0.388	0.311	0.301	0.284	0.286	1.04	1.04	0.984	1.06	0.944
NCI-H322M	0.468	0.315	0.406	0.359	0.294	0.51	0.428	0.501	0.447	0.407	0.553	0.495	0.519	0.491	0.391	0.766	0.842	0.863	0.684	0.408
NCI-H2347	0.539	0.563	0.518	0.49	0.44	0.77	0.635	0.76	0.65	0.532	0.272	0.285	0.298	0.251	0.232	0.987	1.09	1.2	0.953	0.853
NCI-H1975	0.868	0.757	0.63	0.532	0.51	0.752	0.718	0.72	0.664	0.571	0.356	0.328	0.326	0.331	0.239	1.03	0.922	0.908	0.803	0.847
NCI-H522	0.575	0.638	0.6	0.577	0.543	0.616	0.812	0.882	0.763	0.748	0.852	0.754	0.699	0.802	0.579	0.927	0.986	0.879	0.828	1.02
A-427	0.185	0.246	0.206	0.192	0.154	0.72	0.569	0.566	0.502	0.344	0.756	0.675	0.704	0.651	0.341	1.04	0.919	1.01	0.784	0.607
LCLC-97TM1	0.202	0.286	0.188	0.269	0.194	0.296	0.367	0.264	0.217	0.222	0.151	0.202	0.182	0.207	0.224	0.982	1.11	1.1	0.969	0.925
HCC-15	0.401	0.392	0.386	0.256	0.212	1.18	1.29	1.3	1.31	1.36	0.38	0.421	0.379	0.393	0.409	1.07	1.08	1.06	0.928	0.936
NCI-H647	0.329	0.312	0.0065	0.182	0.173	0.497	0.496	0.349	0.37	0.238	0.52	0.44	0.403	0.373	0.313	0.937	1.07	0.972	0.769	0.417
